In patent US20100292169A1, “METHODS AND COMPOSITIONS FOR REGULATING HDAC6 ACTIVITY” (Duke University, priority 2005, published 2010):
Changes are numbered by the printed parent chain. Each block holds one molecule with its values, some of them ahead of it. Square brackets hold non-standard residues; d marks the D form. Peptide text beside a SMILES is read from it. * marks the point of attachment. Aoe = N[C@@H](CCCCCC(=O)[C@@H]1CO1)C(=O)O; Cbz = O=C(OCc1ccccc1)*

Assays:
[1] = test system: p60^HOP and p50^cdc37; assay: Rescue of p60HOP and p50cdc37 levels by proteasome inhibition after loss of HDAC6; assay type: cell-based
Text: Since p60^HOP and p50^cdc37 are critical co-chaperones for Hsp90 function, these observations provide further evidence that HDAC6 is required for full Hsp90 chaperone function.

[2] = test system: Hsp90-p23 interactions; assay: Hsp90-p23 co-immunoprecipitation in A549 cells; assay type: cell-based; conditions: treated for 4 hours or HDAC6 siRNA knockdown
Protocol: (§1) Immunoprecipitation and immunostaining. Cells were lysed as described previously (Hubbert et al., 2002). Hsp90 antibody was pre-incubated with rabbit-anti-mouse (Jackson Labs) and Protein-A Sepharose beads (Roche) for 10 minutes. The bead/antibody mix was added to 750 μg of whole cell lysate and incubated at 4° C. for 3 hours. Samples were washed 4 times with 150 mM NETN(Hubbert et al., 2002) and subjected to SDS-PAGE and immunoblotting analysis. Immunolocalization of GR and HDAC6 was described previously (Hubbert et al., 2002).
(§2) Studies were also conducted to identify the molecular basis for the regulation of Hsp90 function via HDAC6-mediated deacetylation. Because the proper folding of GR by Hsp90 depends on the association of Hsp90 with a distinct set of co-chaperones into a chaperone complex (Neckers, 2002; Pratt and Toft, 2003), a determination was made regarding whether Hsp90 acetylation affects Hsp90/co-chaperone assembly. The p23 protein (Johnson and Toft, 1994) is a co-chaperone that stabilizes the Hsp90-GR complex and is critical for GR ligand binding activity in vitro and in vivo (Dittmar et al., 1997; Morishima et al., 2003). Control A549 cells and HDAC6 siRNA knockdown cells (KD) were left untreated or treated for 4 hours with TSA or TPXb. Lysates were immunoprecipitated with α-Hsp90 antibody followed by immunoblotting with α-p23 antibody. […]

[3] = test system: HDAC members; conditions: cited from earlier work
[4] = test system: Hsp90; assay: Hsp90 acetylation: α-Hsp90 immunoprecipitation, α-AcK immunoblot, in A549 cells; assay type: cell-based
Protocol: as §1
HDAC6 regulates Hsp90 acetylation. To investigate the possibility that HDAC6 functions as an Hsp90 deacetylase, a determination was made regarding whether over-expression of HDAC6 can lead to Hsp90 deacetylation in vivo. […] A basal level of Hsp90 acetylation could be detected in control A549 cell lines. […] The reactions were then subjected to SDS-PAGE and immunoblotted with the indicated antibodies).
Hsp90 hyperacetylation is induced by dexamethasone and correlated with the dissociation of functional […]. Experiments were conducted to determine whether Hsp90 acetylation is regulated by dexamethasone. Control and HDAC6 knockdown A549 cells were cultured in hormone free media for 24 hours, and then stimulated with dexamethasone for the indicated time in hours. […]

[5] = test system: Hsp90-GR complex; assay: Hsp90-GR co-immunoprecipitation in A549 cells; assay type: cell-based; conditions: TSA 4 hours or HDAC6 knockdown
Protocol: as §1, §2

[6] = target: glucocorticoid receptor (GR), endogenous, of A549 and 293T cells (human) (UniProt P04150); assay: cell-based or functional assay
[7] = target: acetylated (hyperacetylated) Hsp90 from HDAC6 knockdown or TSA-treated cells
[8] = target: T1, mouse glucocorticoid receptor (mGR), full length (mouse, UniProt P06537 1-792); assay: immunoadsorption of mGR from wild-type and HDAC6 knockdown 293T cells, immunoblot for coadsorbed p23 (within the GR.hsp90 complex)
T1 construct: stripped of chaperones with 0.5 M NaCl before reconstitution; also called mouse GR
T1 sequence (looked up): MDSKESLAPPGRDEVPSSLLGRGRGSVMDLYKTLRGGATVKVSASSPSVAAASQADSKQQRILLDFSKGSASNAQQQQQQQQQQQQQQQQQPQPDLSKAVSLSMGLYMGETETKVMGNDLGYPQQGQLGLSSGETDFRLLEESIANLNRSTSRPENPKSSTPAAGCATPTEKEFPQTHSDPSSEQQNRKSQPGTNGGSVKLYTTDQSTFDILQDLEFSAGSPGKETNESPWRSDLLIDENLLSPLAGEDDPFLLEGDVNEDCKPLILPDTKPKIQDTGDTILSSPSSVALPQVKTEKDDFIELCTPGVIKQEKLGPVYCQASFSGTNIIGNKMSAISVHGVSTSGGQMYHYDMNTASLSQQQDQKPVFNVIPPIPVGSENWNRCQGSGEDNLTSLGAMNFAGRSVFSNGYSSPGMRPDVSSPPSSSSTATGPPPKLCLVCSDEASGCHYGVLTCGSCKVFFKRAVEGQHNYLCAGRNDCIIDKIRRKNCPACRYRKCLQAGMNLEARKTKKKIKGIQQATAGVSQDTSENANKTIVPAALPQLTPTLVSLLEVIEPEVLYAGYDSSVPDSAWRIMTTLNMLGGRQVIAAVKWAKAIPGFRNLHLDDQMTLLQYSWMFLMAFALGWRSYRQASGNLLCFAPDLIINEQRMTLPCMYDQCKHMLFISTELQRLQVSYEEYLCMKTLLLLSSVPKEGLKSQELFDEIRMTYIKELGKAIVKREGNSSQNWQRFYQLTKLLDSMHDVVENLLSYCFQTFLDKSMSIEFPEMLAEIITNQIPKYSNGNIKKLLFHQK
Text: Because an immunoadsorbing antibody against the human GR was not available, the mouse GR was transiently expressed in HEK cells.

Molecule: CC(C)C[C@@H](C=O)NC(=O)[C@H](CC(C)C)NC(=O)[C@H](CC(C)C)NC(=O)OCc1ccccc1 [MG132] (Cbz-Leu-Leu-Leu-aldehyde)
rescue of the reduction of p60^HOP and p50^cdc37 [1]: partially rescued

Molecule: O=C1N[C@@H](Cc2ccccc2)C(=O)N2CCC[C@@H]2C(=O)N[C@@H](CCCCCC(=O)[C@@H]2CO2)C(=O)N[C@H]1Cc1ccccc1 [TPXb] (cyclo(FF[dP][Aoe]))
Hsp90-p23 interactions [2]: had little effect
HDAC inhibition profile [3]: a potent inhibitor for all HDAC members except HDAC6

Molecule: CC(/C=C/C(=O)NO)=C\[C@@H](C)C(=O)c1ccc(N(C)C)cc1 [trichostatin A]
level of acetylated Hsp90 ([4]; A549 cells, treated for 4 hours (TPXb 100 nM) or stably expressing siRNA): dramatic rise in the level of acetylated Hsp90
Hsp90 acetylation in HDAC6 knockdown cells ([4]; HDAC6 knockdown A549 cells, TSA treatment): little effect on Hsp90 acetylation
Hsp90-p23 interactions [2]: disrupted Hsp90-p23 interactions
Hsp90 and GR interaction [5]: significantly reduced

GR ligand binding activity ([^3H]dexamethasone bound in 293T cytosol) (fold reduction) [6]: 6
Molecule: acetylated (hyperacetylated) Hsp90 from HDAC6 knockdown or TSA-treated cells

B1: Flag-HDAC6 (FLAG-tagged wild-type HDAC6) (protein)
chain: MTSTGQDSTTTRQRRSRQNPQSPPQDSSVTSKRNIKKGAVPRSIPNLAEVKKKGKMKKLGQAMEEDLIVGLQGMDLNLEAEALAGTGLVLDEQLNEFHCLWDDSFPEGPERLHAIKEQLIQEGLLDRCVSFQARFAEKEELMLVHSLEYIDLMETTQYMNEGELRVLADTYDSVYLHPNSYSCACLASGSVLRLVDAVLGAEIRNGMAIIRPPGHHAQHSLMDGYCMFNHVAVAARYAQQKHRIRRVLIVDWDVHHGQGTQFTFDQDPSVLYFSIHRYEQGRFWPHLKASNWSTTGFGQGQGYTINVPWNQVGMRDADYIAAFLHVLLPVALEFQPQLVLVAAGFDALQGDPKGEMAATPAGFAQLTHLLMGLAGGKLILSLEGGYNLRALAEGVSASLHTLLGDPCPMLESPGAPCRSAQASVSCALEALEPFWEVLVRSTETVERDNMEEDNVEESEEEGPWEPPVLPILTWPVLQSRTGLVYDQNMMNHCNLWDSHHPEVPQRILRIMCRLEELGLAGRCLTLTPRPATEAELLTCHSAEYVGHLRATEKMKTRELHRESSNFDSIYICPSTFACAQLATGAACRLVEAVLSGEVLNGAAVVRPPGHHAEQDAACGFCFFNSVAVAARHAQTISGHALRILIVDWDVHHGNGTQHMFEDDPSVLYVSLHRYDHGTFFPMGDEGASSQIGRAAGTGFTVNVAWNGPRMGDADYLAAWHRLVLPIAYEFNPELVLVSAGFDAARGDPLGGCQVSPEGYAHLTHLLMGLASGRIILILEGGYNLTSISESMAACTRSLLGDPPPLLTLPRPPLSGALASITETIQVHRRYWRSLRVMKVEDREGPSSSKLVTKKAPQPAKPRLAERMTTREKKVLEAGMGKVTSASFGEESTPGQTNSETAVVALTQDQPSEAATGGATLAQTISEAAIGGAMLGQTTSEEAVGGATPDQTTSEETVGGAILDQTTSEDAVGGATLGQTTSEEAVGGATLAQTTSEAAMEGATLDQTTSEEAPGGTELIQTPLASSTDHQTPPTSPVQGTTPQISPSTLIGSLRTLELGSESQGASESQAPGEENLLGEAAGGQDMADSMLMQGSRGLTDQAIFYAVTPLPWCPHLVAVCPIPAAGLDVTQPCGDCGTIQENWVCLSCYQVYCGRYINGHMLQHHGNSGHPLVLSYIDLSAWCYYCQAYVHHQALLDVKNIAHQNKFGEDMPHPH
in vitro deacetylation of acetylated Hsp90 (37° C., 60 minutes; α-AcK immunoblot) [7]: immuno-purified wild type but not catalytically inactive mutant HDAC6 can efficiently deacetylate acetylated Hsp90 in vitro
restoration of stable GR.hsp90 heterocomplex assembly activity after incubation with immunopurified FLAG-HDAC6 [7]: The stable heterocomplex assembly activity of purified knockdown cell hsp90 is restored to the level of purified wild-type hsp90 by incubation with immunopurified FLAG-HDAC6

B2: Flag-HDAC6-cat-mut (H216/611A, catalytically inactive mutant) (protein)
chain: B1 chain with H216A, H611A
in vitro deacetylation of acetylated Hsp90 (37° C., 60 minutes; α-AcK immunoblot) [7]: immuno-purified wild type but not catalytically inactive mutant HDAC6 can efficiently deacetylate acetylated Hsp90 in vitro

binding result [8]: binds
B3: p23 protein (Hsp90 co-chaperone), endogenous, of A549 and 293T cells (other, UniProt Q15185 1-160, looked up)
chain: MQPASAKWYDRRDYVFIEFCVEDSKDVNVNFEKSKLTFSCLGGSDNFKHLNEIDLFHCIDPNDSKHKRTDRSILCCLRKGESGQSWPRLTKERAKLNWLSVDFNNWKDWEDDSDEDMSNFDRFSEMMNNMGGDEDVDLPEVDGADDDSQDSDDEKMPDLE
